target: T1, human KV 1.5 (IKur) (Homo sapiens, UniProt P22460); assay: block of IKur current in patch clamped L-929 cells expressing human Kv1.5; type: cell-based; details: 0.3 μM; patch clamped mammalian L-929 cells stably expressing human Kv1.5
T1 construct: expressed in transfected cells
T1 sequence (P22460 whole entry): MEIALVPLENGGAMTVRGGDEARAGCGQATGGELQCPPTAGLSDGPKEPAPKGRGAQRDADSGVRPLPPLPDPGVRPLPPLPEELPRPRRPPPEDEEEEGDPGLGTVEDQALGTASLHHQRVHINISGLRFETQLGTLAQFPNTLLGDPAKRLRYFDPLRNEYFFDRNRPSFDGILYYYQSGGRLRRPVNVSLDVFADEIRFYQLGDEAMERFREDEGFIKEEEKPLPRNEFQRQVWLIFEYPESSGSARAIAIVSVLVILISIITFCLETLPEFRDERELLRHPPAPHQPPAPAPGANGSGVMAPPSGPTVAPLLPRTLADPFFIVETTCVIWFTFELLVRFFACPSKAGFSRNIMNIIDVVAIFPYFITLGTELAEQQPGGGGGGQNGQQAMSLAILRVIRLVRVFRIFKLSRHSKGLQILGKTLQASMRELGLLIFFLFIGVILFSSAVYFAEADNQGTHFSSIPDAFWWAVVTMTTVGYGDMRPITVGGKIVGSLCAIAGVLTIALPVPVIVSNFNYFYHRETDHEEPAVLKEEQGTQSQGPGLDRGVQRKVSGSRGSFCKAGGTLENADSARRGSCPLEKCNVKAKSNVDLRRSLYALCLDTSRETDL

KV1_5% Inh L929 @0.3 μM [%]	SMILES
97.64	NS(=O)(=O)c1cncc(-c2nc(NC3CCCc4cccnc43)c3c(-c4ccccc4)ccn3n2)c1 (centres unmarked) [Example 171, 5-(5-phenyl-4-((5,6,7,8-tetrahydroquinolin-8-yl)amino)pyrrolo[2,1-f] [1,2,4]triazin-2-yl)pyridine-3-sulfonamide]

same assay, conditions: L929, 0.3 μM; patch clamped mammalian L-929 cells stably expressing human Kv1.5; read-out: KV1_5% Inh L929 @0.3 μM

inhibition at 0.3 µM [%]	SMILES
90.3	NS(=O)(=O)c1cncc(-c2nc(NCc3ccncn3)c3c(-c4ccccc4)ccn3n2)c1 [Example 165, 5-(5-phenyl-4-((pyrimidin-4-ylmethyl)amino)pyrrolo [2,1-f][1,2,4]triazin-2-yl)pyridine-3-sulfonamide]
98	NS(=O)(=O)c1cncc(-c2nc(NCc3ccccn3)c3c(-c4ccccc4F)ccn3n2)c1 [Example 166, 5-(5-(2-fluorophenyl)-4-((pyridin-2-ylmethyl)amino)pyrrolo [2,1-f][1,2,4]triazin-2-yl)pyridine-3-sulfonamide]
89.8	COC(=O)c1ccccc1CNc1nc(-c2cncc(S(N)(=O)=O)c2)nn2ccc(-c3ccccc3)c12 [Example 167, methyl 2-(((5-phenyl-2-(5-sulfamoylpyridin-3-yl)pyrrolo[2,1-f][1,2,4]triazin-4-yl)amino)methyl) benzoate]
86.8	N#Cc1ccccc1CNc1nc(-c2cncc(S(N)(=O)=O)c2)nn2ccc(-c3ccccc3)c12 [Example 168, 5-(4-((2-cyanobenzyl)amino)-5-phenylpyrrolo [2,1-f][1,2,4]triazin-2-yl)pyridine-3-sulfonamide]
62.2	NC(=O)c1ccccc1CNc1nc(-c2cncc(S(N)(=O)=O)c2)nn2ccc(-c3ccccc3)c12 [Example 169, 2-(((5-phenyl-2-(5-sulfamoylpyridin-3-yl)pyrrolo[2,1-f][1,2,4]triazin-4-yl)amino)methyl) benzamide]
96.4	NS(=O)(=O)c1cncc(-c2nc(NC3CCCc4cccnc43)c3c(-c4ccccc4)ccn3n2)c1 (centres unmarked) [Example 170, 5-(5-phenyl-4-((5,6,7,8-tetrahydroquinolin-8-yl)amino)pyrrolo[2,1-f] [1,2,4]triazin-2-yl)pyridine-3-sulfonamide]
84.3	NS(=O)(=O)c1cncc(-c2nc(NCc3nc4ccccc4s3)c3c(-c4ccccc4)ccn3n2)c1 [Example 172, 5-(4-((benzo[d]thiazol-2-ylmethyl)amino)-5-phenylpyrrolo [2,1-f][1,2,4]triazin-2-yl)pyridine-3-sulfonamide]
98.7	NS(=O)(=O)c1cncc(-c2nc(NCc3ncccc3F)c3c(-c4ccccc4F)ccn3n2)c1 [Example 173, 5-(5-(2-fluorophenyl)-4-(((3-fluoropyridin-2-yl)methyl)amino)pyrrolo [2,1-f][1,2,4]triazin-2-yl)pyridine-3-sulfonamide]
97.2	Cc1csc(CNc2nc(-c3cncc(S(N)(=O)=O)c3)nn3ccc(-c4ccccc4)c23)n1 [Example 174, 5-(4-(((4-methylthiazol-2-yl)methyl)amino)-5-phenylpyrrolo [2,1-f][1,2,4]triazin-2-yl)pyridine-3-sulfonamide]
97.1	COc1ncc(-c2nc(NCc3nc(C)cs3)c3c(-c4ccccc4)ccn3n2)cc1S(N)(=O)=O [Example 175, 2-methoxy-5-(4-(((4-methylthiazol-2-yl)methyl)amino)-5-phenylpyrrolo [2,1-f][1,2,4]triazin-2-yl)pyridine-3-sulfonamide]
96	Cc1cc(CNc2nc(-c3cncc(S(N)(=O)=O)c3)nn3ccc(-c4ccccc4)c23)no1 [Example 176, 5-(4-(((5-methylisoxazol-3-yl)methyl)amino)-5-phenylpyrrolo [2,1-f][1,2,4]triazin-2-yl)pyridine-3-sulfonamide]
96.7	CCOC(=O)CC(=O)Nc1cncc(-c2nc(NCc3cnccn3)c3c(-c4ccccc4)ccn3n2)c1 [Example 177, ethyl 3-oxo-3-((5-(5-phenyl-4-((pyrazin-2-ylmethyl)amino)pyrrolo [2,1-f][1,2,4]triazin-2-yl)pyridin-3-yl)amino) propanoate]
99.2	Nc1ccccc1CNc1nc(-c2cncc(S(N)(=O)=O)c2)nn2ccc(-c3ccccc3)c12 [Example 178, 5-(4-((2-aminobenzyl)amino)-5-phenylpyrrolo [2,1-f][1,2,4]triazin-2-yl)pyridine-3-sulfonamide]
90.1	CS(=O)(=O)Nc1ccccc1CNc1nc(-c2cncc(S(N)(=O)=O)c2)nn2ccc(-c3ccccc3)c12 [Example 179, 5-(4-((2-(methylsulfonamido)benzyl)amino)-5-phenylpyrrolo [2,1-f][1,2,4]triazin-2-yl)pyridine-3-sulfonamide]
36.9	CC(=O)Nc1ccccc1CNc1nc(-c2cncc(S(N)(=O)=O)c2)nn2ccc(-c3ccccc3)c12 [Example 180, N-(2-(((5-phenyl-2-(5-sulfamoylpyridin-3-yl)pyrrolo[2,1-f][1,2,4]triazin-4-yl)amino)methyl)phenyl)acetamide]
96	COC(=O)Nc1ccccc1CNc1nc(-c2cncc(S(N)(=O)=O)c2)nn2ccc(-c3ccccc3)c12 [Example 181, methyl (2-(((5-phenyl-2-(5-sulfamoylpyridin-3-yl)pyrrolo[2,1-f][1,2,4]triazin-4-yl)amino)methyl)phenyl)carbamate]
93.7	NS(=O)(=O)c1cncc(-c2nc(NCc3ccccn3)c3c(-c4ccccc4)ccn3n2)c1C(F)F [Example 182, 4-(difluoromethyl)-5-(5-phenyl-4-((pyridin-2-ylmethyl)amino)pyrrolo [2,1-f][1,2,4]triazin-2-yl)pyridine-3-sulfonamide]
97.8	NS(=O)(=O)c1ccc(-c2nc(NCc3ccccn3)c3c(-c4ccccc4)ccn3n2)cn1 [Example 183, 5-(5-phenyl-4-((pyridin-2-ylmethyl)amino)pyrrolo[2,1-f][1,2,4]triazin-2-yl)pyridine-2-sulfonamide]
80.9	N#Cc1ccccc1-c1ccn2nc(-c3cncc(S(N)(=O)=O)c3)nc(NCc3ccccn3)c12 [Example 184, 5-(5-(2-cyanophenyl)-4-((pyridin-2-ylmethyl)amino)pyrrolo [2,1-f][1,2,4]triazin-2-yl)pyridine-3-sulfonamide]

— US9050345B2, “Pyrrolotriazines as potassium ion channel inhibitors” (BRISTOL-MYERS SQUIBB COMPANY, priority 2013, dated 2015)
